US20160206592A1, “METHOD FOR TREATING AMYOTROPHIC LATERAL SCLEROSIS BY INHIBITION OF CXCR4/CXCL12 SIGNALING” (RAMOT AT TEL-AVIV UNIVERSITY LTD., priority 2013, published 2016)
Like-named read-outs stand apart in the source and are kept apart here.

Assays:
[1] = tested on: activated microglia; details: female SODG93A mice, 5 mg/kg s.c. twice a week from 50 days old, sacrificed at 110 days old
Protocol: 50 days old female SODG93A mice were s.c injected with 5 mg/kg AMD3100 twice a week. On 110 days old mice were sacrificed and analyzed using western blot for inflammatory markers of activated microglia. FIG. 7A. is cd36 levels. FIG. 7B. is Iba-1 levels.
Loss of upper and lower MNs results in progressive muscle paralysis and ultimately death due to respiratory failure. Although initially thought to derive from the selective loss of MNs, the pathogenic concept of non-cell autonomous disease has come to the fore front for the contribution of glial cells in ALS, in particular microglia. […] Conversely, activated microglia contributes and enhances MN death by secreting neurotoxic factors, and impaired microglial function at the end-stage may instead accelerate disease progression. However, the nature of microglial-neuronal interactions that lead to MN degeneration remains elusive.

[2] = tested on: ZO-1, claudin 5, Occludin; details: female SODG93A mice, 5 mg/kg s.c. twice a week from 50 days old, sacrificed at 110 days old
Protocol: FIGS. 9A-9C show Blood-CNS-Barrier markers levels following AMD3100 treatment. 50 days old female SODG93A mice were s.c injected with 5 mg/kg AMD3100 twice a week. On 110 days old mice were sacrificed and analyzed for B-CNS-B markers using western blot.
Endothelial cells play an important role in B-CNS-B function. B-CNS-B dysfunction is recognized to participate in neurodegenerative disorders. […] TJPs such as ZO-1, occludin and the claudin family exist in cerebral vascular endothelial cells, which are the most crucial factors modulating barrier integrity. […] The expression of TJPs has been reported to contribute to barrier function. ZO-1 and claudin-5 are the most important components for cell barrier integrity. Claudin-5 can greatly reduce dextran permeability and improve transendothelial electrical resistance and plays an essential role in the earliest stage of CNS angiogenesis. ZO-1 serves as a bridge between transmembrane proteins and skeleton proteins, and this interaction is important to the stability and function of endothelial barrier. […] All these three proteins are known to be reduced by 40%-60% in both animal models of ALS and humans, even prior to disease onset (Zhong et al., 2008).

[3] = tested on: SOD1-G93A female and male mice
Protocol: FIGS. 4A-4C are graphs showing survival (Kaplan-Meier curves; P-value=0.0001) of SOD1-G93A female and male mice subcutaneously treated with either 5 mg/kg AMD3100 or PBS, starting at 50 days old; N=29 (AMD3100), N=16 (PBS).

[4] = tested on: transgenic G93A mice; details: G93A female mice, s.c. once and twice a week
Excerpt: Six mice received AMD3100 once a week, eight mice received AMD3100 twice a week, and seven mice received PBS once a week.
For this purpose, the present inventors treated G93A female mice subcutaneously with either AMD3100 or PBS, starting at 70 days old. Six mice received AMD3100 once a week, eight mice received AMD3100 twice a week, and seven mice received PBS once a week.

[5] = tested on: NSC-34 cells stably transfected with mutant SOD1; details: 25 ug AMD3100, astrocytes from newborn SODG93A mice incubated 24 h, compared to other concentrations
Protocol: Primary astrocytes from 3 days old newborn SODG93A mice were incubated AMD3100 for 24 h. Media of treated astrocytes was then added to NSC-34 cells stably transfected with mutant SOD1.

[6] = females only, 5 mg/kg twice a week
[7] = males and females together, 5 mg/kg s.c., starting at 50 days old
[8] = males only, 5 mg/kg twice a week

c1cc(CN2CCCNCCNCCCNCC2)ccc1CN1CCCNCCNCCCNCC1 [AMD3100, 1,1′-[1,4-Phenylenebis(methylene)]bis-1,4,8,11-tetraazacyclotetradecane]
Iba-1 levels [1]: significant reduction | cd36 levels [1]: significant reduction | Occludin levels [2]: effective in restoring the expression | ZO-1 levels [2]: effective in restoring the expression | claudin 5 levels [2]: effective in restoring the expression | mean survival [3, 6]: 146 days | median survival [3, 6]: 144 days | survival (versus PBS) [3, 6]: 14 days | mean survival [3, 7]: 144 days | median survival [3, 7]: 143 days | survival according to Kaplan-Meier curve (versus PBS) [3, 7]: 12 days | mean survival [3, 8]: 141 days | median survival [3, 8]: 139 days | survival (versus PBS) [3, 8]: 8 days | extension of survival compared with control (PBS) mice [4]: about 14 days | age at death ([4]; starting at 70 days old): ~170 days old | survival of motor neuron like cells [5]: increased the survival
